In patent publication US20230366887A1, “METHODS OF DETECTING AND USING BIOMARKERS FOR GLYCOGEN STORAGE DISEASES” (Duke University, priority 2020, published 2023):
Several values for one entry are separate records, joined by “and”; a condition that tells them apart may be missing. Equal entries are not always repeated.

Legend:
[1] = cited from earlier work
1,5-AG = test: Level of 1,5-AG in subjects having GSD Ib after Jardiance treatment; type: in vivo, human; conditions: reference range in normal adults 10.7-32.0, in µg/mL (unit assumed)
Description: The level of 1,5-AG was determined in 6 subjects having GSD Ib. Here, the reference range of 1,5-AG in normal, non-GSD Ib adults is 10.7-32.0.

| Structure (SMILES) | half-life in blood ([1]; blood) | excreted amount in urine reabsorbed by the kidneys ([1]; reabsorption at sodium glucose active cotransporter (SGLT4)) | Level of 1,5-AG After Jardiance Treatment (1,5-AG; first value after treatment) | Level of 1,5-AG After Jardiance Treatment (1,5-AG; later value ('then')) |
| --- | --- | --- | --- | --- |
| OC[C@H]1OC[C@H](O)[C@@H](O)[C@@H]1O [1,5-AG, 1,5-anhydroglucitol] | 1-2 weeks | About 99.9% | – | – |
| OC[C@H]1O[C@@H](c2ccc(Cl)c(Cc3ccc(O[C@H]4CCOC4)cc3)c2)[C@H](O)[C@@H](O)[C@@H]1O [Jardiance] | – | – | 20.7 and 33.1 | 7.8 |
